One assay deals with MCF7. Put plainly: cells. Conditions: Homo sapiens, MCF7, 72 h.
Assay [1] deals with PC-3. Kind of assay: Induction of mitochondrial membrane potential loss in human PC3 cells assessed as fluorescence intensity at cytotoxic IC50 after 48 hrs by TMRE dye-based fluorescence assay based flow cytometry (reference value: 210.8). It counts as functional. Background: In flow cytometry, cells or beads pass a laser one at a time.
The subject of assay [2] is PC-3. Put plainly: Induction of cell cycle arrest in human PC3 cells assessed as effect on S phase at cytotoxic IC50 after 48 hrs by propidium iodide staining based flow cytometry. The class given is functional.
Assay [3] has as its system PC-3. Kind of assay: Induction of mitochondrial membrane potential loss in human PC3 cells assessed as fluorescence intensity at cytotoxic IC50 after 48 hrs by TMRE dye-based fluorescence assay based flow cytometry relative to untreated control. It counts as functional.
Assay [4] relates to PC-3. Kind of assay: Induction of cell cycle arrest in human PC3 cells assessed as effect on G0/G1 phase at cytotoxic IC50 after 48 hrs by propidium iodide staining based flow cytometry. It counts as functional.
Assay [5] can be described thus: Cytotoxicity against human HSF cells assessed as reduction in cell viability after 72 hrs by MTT assay. It counts as cell-based. (Tetrazolium dyes change colour on reduction, which living cells bring about.)
Assay [6] has as its system PC-3. Kind of assay: Cytotoxicity against human PC3 cells assessed as reduction in cell viability after 72 hrs by MTT assay. It counts as functional, cell-based. The conditions noted are these: PC-3, 72 h.
Assay [7] deals with PC-3. Kind of assay: Induction of cell cycle arrest in human PC3 cells assessed as effect on G2/M phase at cytotoxic IC50 after 48 hrs by propidium iodide staining based flow cytometry. It counts as functional.

Each structure is given as a SMILES string. The source made the active and inactive calls. The rule behind the calls is not given here.

Description for MCF7: Cytotoxicity against human MCF7 cells assessed as reduction in cell viability after 72 hrs by MTT assay

Compound `COc1cccc2c1C(=O)c1c(O)c3c(c(O)c1C2=O)C[C@@](O)(C(=O)CO)C[C@@H]3O[C@H]1C[C@H](N)[C@H](O)[C@H](C)O1` [DOXORUBICIN] registered an IC50 in the assay on MCF7 of 0.15 µM.
Turning to `C=C(C)[C@@H]1CC[C@]2(COC(=O)CCC[P+](c3ccccc3)(c3ccccc3)c3ccccc3)CC[C@]3(C)[C@H](CC[C@@H]4[C@@]5(C)CC[C@H](OC(=O)CCC[P+](c6ccccc6)(c6ccccc6)c6ccccc6)C(C)(C)[C@@H]5CC[C@]43C)[C@@H]12.[Br-].[Br-]`, the Flu intensity in the assay with PC-3 [1] was found to be 90.1. The result in the assay on PC-3 [2], in the assay with PC-3 [4] and in the assay on PC-3 [7] was inactive. Besides, the results for the IC50 (with MCF7; in assay [5]; in the assay with PC-3 [6]) were 0.35 µM, 0.86 µM and 0.54 µM, respectively. Further, the “fold change (FC)” value with PC-3 [3] is recorded as 2.
Consider `C=C(C)[C@@H]1CC[C@]2(CO)CC[C@]3(C)[C@H](CC[C@@H]4[C@@]5(C)CC[C@H](O)C(C)(C)[C@@H]5CC[C@]43C)[C@@H]12` [BETULIN], for which the Flu intensity in the assay on PC-3 [1] was determined as 205.9. In addition, the result in the assay on PC-3 [2], with PC-3 [4] and with PC-3 [7] was inactive.
For `C=C(C)[C@@H]1CC[C@]2(COC(=O)CCCCBr)CC[C@]3(C)[C@H](CC[C@@H]4[C@@]5(C)CC[C@H](OC(=O)CCCCBr)C(C)(C)[C@@H]5CC[C@]43C)[C@@H]12`, the Flu intensity in the assay on PC-3 [1] was 187.9. The outcome in the assay on PC-3 [2], with PC-3 [4] and in the assay on PC-3 [7] was inactive. Besides, in the assay on PC-3 [3], the Activity amounted to 10%.
With `C=C(C)[C@@H]1CC[C@]2(COC(=O)C[P+](c3ccccc3)(c3ccccc3)c3ccccc3)CC[C@]3(C)[C@H](CC[C@@H]4[C@@]5(C)CC[C@H](O)C(C)(C)[C@@H]5CC[C@]43C)[C@@H]12`, the IC50 in the assay on MCF7 was > 10 µM; in assay [5] it was 9.9 µM; in the assay with PC-3 [6], 6.8 µM.
Regarding `C=C(C)[C@@H]1CC[C@]2(COC(=O)CCC[P+](c3ccccc3)(c3ccccc3)c3ccccc3)CC[C@]3(C)[C@H](CC[C@@H]4[C@@]5(C)CC[C@H](O)C(C)(C)[C@@H]5CC[C@]43C)[C@@H]12`, the IC50 in the assay with MCF7 was 0.43 µM; in assay [5], 2.1 µM; with PC-3 [6], 0.16 µM.
Turning to `C=C(C)[C@@H]1CC[C@]2(COC(=O)C[P+](c3ccccc3)(c3ccccc3)c3ccccc3)CC[C@]3(C)[C@H](CC[C@@H]4[C@@]5(C)CC[C@H](OC(=O)C[P+](c6ccccc6)(c6ccccc6)c6ccccc6)C(C)(C)[C@@H]5CC[C@]43C)[C@@H]12`, the half-maximal inhibitory concentration (IC50) with MCF7 was 8.7 µM; in assay [5], 5.6 µM; in the assay on PC-3 [6], 6.9 µM.
For the compound `C=C(C)[C@@H]1CC[C@]2(COC(=O)CCCC[P+](c3ccccc3)(c3ccccc3)c3ccccc3)CC[C@]3(C)[C@H](CC[C@@H]4[C@@]5(C)CC[C@H](O)C(C)(C)[C@@H]5CC[C@]43C)[C@@H]12.[Br-]`, the Flu intensity in the assay with PC-3 [1] worked out at 186.6. Also, the outcome in the assay on PC-3 [2], with PC-3 [4] and in the assay with PC-3 [7] was inactive. Further, the IC50 in the assay on MCF7 worked out at 0.7 µM; in assay [5], 1.5 µM; in the assay on PC-3 [6], 0.12 µM.
With `CC[C@]1(O)C[C@@H]2CN(CCc3c([nH]c4ccccc34)[C@@](C(=O)OC)(c3cc4c(cc3OC)N(C)[C@H]3[C@@](O)(C(=O)OC)[C@H](OC(C)=O)[C@]5(CC)C=CCN6CC[C@]43[C@@H]65)C2)C1` [VINBLASTINE], 0.5 µM corresponded to half-maximal inhibition with MCF7 (IC50).
For `C=C(C)[C@@H]1CC[C@]2(COC(=O)CCCC[P+](c3ccccc3)(c3ccccc3)c3ccccc3)CC[C@]3(C)[C@H](CC[C@@H]4[C@@]5(C)CC[C@H](OC(=O)CCCC[P+](c6ccccc6)(c6ccccc6)c6ccccc6)C(C)(C)[C@@H]5CC[C@]43C)[C@@H]12.[Br-].[Br-]`, the Flu intensity in the assay on PC-3 [1] came out at 112.2. For the same compound, the result with PC-3 [2], in the assay with PC-3 [4] and with PC-3 [7] was inactive. Besides, the half-inhibitory concentration (IC50) in the assay on MCF7 is 0.48 µM; in assay [5], 0.76 µM; in the assay on PC-3 [6] it was 0.47 µM. Also, the “fold change (FC)” value with PC-3 [3] is listed as 2.

For orientation: IC50 means the concentration that inhibits the measured activity by half.
